# Laboratory results from patent US20250262201A1, “COMPOUNDS AND METHODS USEFUL FOR STABILIZING PHENYLALANINE HYDROXYLASE MUTATIONS” (Agios Pharmaceuticals, Inc., priority 2022, published 2025).
# Molecular target: T1, human PAH with the R408W mutation (Homo sapiens, UniProt P00439, R408W)
# T1 construct: expressed in transfected cells
# T1 sequence (P00439 1-452 R408W): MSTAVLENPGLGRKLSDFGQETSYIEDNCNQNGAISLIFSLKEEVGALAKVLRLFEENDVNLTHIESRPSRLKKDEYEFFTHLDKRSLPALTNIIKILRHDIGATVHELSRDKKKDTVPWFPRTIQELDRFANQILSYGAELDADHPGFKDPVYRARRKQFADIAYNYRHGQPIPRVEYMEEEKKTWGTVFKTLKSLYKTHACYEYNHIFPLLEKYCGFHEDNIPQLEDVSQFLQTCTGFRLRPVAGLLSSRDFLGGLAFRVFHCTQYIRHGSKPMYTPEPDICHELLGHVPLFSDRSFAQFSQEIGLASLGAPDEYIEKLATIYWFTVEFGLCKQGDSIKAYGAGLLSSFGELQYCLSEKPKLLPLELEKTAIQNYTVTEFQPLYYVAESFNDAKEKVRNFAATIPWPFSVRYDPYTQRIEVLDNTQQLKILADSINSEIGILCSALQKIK
# Test: Cell Based Phenylalanine Flux Assay
# Details: A375 cells expressing human R408W PAH; 24 hrs compound incubation; 13C-Tyrosine by LC-MS; average where tested multiple times; read-out: AC50
row,SMILES,AC50
1,"C[C@@H]1CN(C(=O)c2oc(C(C)(C)O)nc2C2CC2)[C@H](c2cc3ccccc3cn2)c2nc[nH]c21 [Example 402, (4-cyclopropyl-2-(2-hydroxypropan-2-yl)oxazol-5-yl)((4R,7R)-4-(isoquinolin-3-yl)-7-methyl-6,7-dihydro-1H-imidazo[4,5-c]pyridin-5(4H)-yl)methanone]",< 500 nM
2,"Cc1nc(-c2ccccn2)oc1C(=O)N1C[C@H](C)c2[nH]cnc2[C@H]1c1cc2ccccc2cn1 [Example 403, ((4R,7S)-4-(isoquinolin-3-yl)-7-methyl-6,7-dihydro-1H-imidazo[4,5-c]pyridin-5(4H)-yl)(4-methyl-2-(pyridin-2-yl)oxazol-5-yl)methanone]",< 500 nM
3,"Cc1nc(-c2ccccn2)oc1C(=O)N1C[C@H](C)c2[nH]cnc2[C@@H]1c1cc2ccccc2cn1 [Example 404, ((4S,7S)-4-(isoquinolin-3-yl)-7-methyl-6,7-dihydro-1H-imidazo[4,5-c]pyridin-5(4H)-yl)(4-methyl-2-(pyridin-2-yl)oxazol-5-yl)methanone]",> 5000 nM
4,"Cc1nc(-c2ccccn2)oc1C(=O)N1C[C@@H](C)c2[nH]cnc2[C@@H]1c1cc2ccccc2cn1 [Example 405, [(4S,7R)-4-(3-isoquinolyl)-7-methyl-1,4,6,7-tetrahydroimidazo[4,5-c]pyridin-5-yl]-[4-methyl-2-(2-pyridyl)oxazol-5-yl]methanone]",1000 to 5000 nM
5,"Cc1nc(-c2ccccn2)oc1C(=O)N1C[C@@H](C)c2[nH]cnc2[C@H]1c1cc2ccccc2cn1 [Example 406, [(4R,7R)-4-(3-isoquinolyl)-7-methyl-1,4,6,7-tetrahydroimidazo[4,5-c]pyridin-5-yl]-[4-methyl-2-(2-pyridyl)oxazol-5-yl]methanone]",< 500 nM
6,"C[C@H]1CN(C(=O)c2oc(-c3ccccn3)nc2C2CC2)[C@H](c2cc3ccccc3cn2)c2nc[nH]c21 [Example 407, (4-cyclopropyl-2-(pyridin-2-yl)oxazol-5-yl)((4R,7S)-4-(isoquinolin-3-yl)-7-methyl-6,7-dihydro-1H-imidazo[4,5-c]pyridin-5(4H)-yl)methanone]",< 500 nM
7,"C[C@H]1CN(C(=O)c2oc(-c3ccccn3)nc2C2CC2)[C@@H](c2cc3ccccc3cn2)c2nc[nH]c21 [Example 408, (4-cyclopropyl-2-(pyridin-2-yl)oxazol-5-yl)((4S,7S)-4-(isoquinolin-3-yl)-7-methyl-6,7-dihydro-1H-imidazo[4,5-c]pyridin-5(4H)-yl)methanone]",500 to 1000 nM
8,"C[C@@H]1CN(C(=O)c2oc(-c3ccccn3)nc2C2CC2)[C@H](c2cc3ccccc3cn2)c2nc[nH]c21 [Example 410, (4-cyclopropyl-2-(pyridin-2-yl)oxazol-5-yl)((4R,7R)-4-(isoquinolin-3-yl)-7-methyl-6,7-dihydro-1H-imidazo[4,5-c]pyridin-5(4H)-yl)methanone]",< 500 nM
9,"CC(C)(F)c1nnc(C(=O)N2CCc3[nH]cnc3[C@H]2c2cc3ccccc3cn2)o1 [Example 419, (R)-(5-(2-fluoropropan-2-yl)-1,3,4-oxadiazol-2-yl)(4-(isoquinolin-3-yl)-6,7-dihydro-1H-imidazo[4,5-c]pyridin-5(4H)-yl)methanone]",< 500 nM
10,"O=C(C1CN(CC(F)(F)F)C1)N1CCc2[nH]cnc2[C@H]1c1cc2ccccc2cn1 [Example 420, (R)-(4-(isoquinolin-3-yl)-6,7-dihydro-1H-imidazo[4,5-c]pyridin-5(4H)-yl)(1-(2,2,2-trifluoroethyl)azetidin-3-yl)methanone]",1000 to 5000 nM
11,"CC(C)(O)c1nc(C(=O)N2CCc3[nH]cnc3[C@H]2c2cc3ccccc3cn2)no1 [Example 421, (R)-(5-(2-hydroxypropan-2-yl)-1,2,4-oxadiazol-3-yl)(4-(isoquinolin-3-yl)-6,7-dihydro-1H-imidazo[4,5-c]pyridin-5(4H)-yl)methanone]",500 to 1000 nM
12,"CC(C)(O)c1noc(C(=O)N2CCc3[nH]cnc3[C@H]2c2cc3ccccc3cn2)n1 [Example 422, (R)-(3-(2-hydroxypropan-2-yl)-1,2,4-oxadiazol-5-yl)(4-(isoquinolin-3-yl)-6,7-dihydro-1H-imidazo[4,5-c]pyridin-5(4H)-yl)methanone]",1000 to 5000 nM
13,"Cn1nc(C(F)F)nc1C(=O)N1CCc2[nH]cnc2[C@H]1c1cc2ccccc2cn1 [Example 423, (R)-(3-(difluoromethyl)-1-methyl-1H-1,2,4-triazol-5-yl)(4-(isoquinolin-3-yl)-6,7-dihydro-1H-imidazo[4,5-c]pyridin-5(4H)-yl)methanone]",< 500 nM
14,"O=C(c1nnc(N2CC(F)C2)o1)N1CCc2[nH]cnc2[C@H]1c1cc2ccccc2cn1 [Example 424, (R)-(5-(3-fluoroazetidin-1-yl)-1,3,4-oxadiazol-2-yl)(4-(isoquinolin-3-yl)-6,7-dihydro-1H-imidazo[4,5-c]pyridin-5(4H)-yl)methanone]",< 500 nM
15,"O=C(c1nnc(N2CCC(F)CC2)o1)N1CCc2[nH]cnc2[C@H]1c1cc2ccccc2cn1 [Example 425, (R)-(5-(4-fluoropiperidin-1-yl)-1,3,4-oxadiazol-2-yl)(4-(isoquinolin-3-yl)-6,7-dihydro-1H-imidazo[4,5-c]pyridin-5(4H)-yl)methanone]",< 500 nM
16,"O=C(c1nnc(-c2ccn(C(F)F)n2)o1)N1CCc2[nH]cnc2[C@H]1c1cc2ccccc2cn1 [Example 426, (R)-(5-(1-(difluoromethyl)-1H-pyrazol-3-yl)-1,3,4-oxadiazol-2-yl)(4-(isoquinolin-3-yl)-6,7-dihydro-1H-imidazo[4,5-c]pyridin-5(4H)-yl)methanone]",< 500 nM
17,"C[C@H]1CN(C(=O)c2nnc(C(C)(C)C)o2)[C@@H](c2cc3ccccc3cn2)c2nc[nH]c21 [Example 427, (5-(tert-butyl)-1,3,4-oxadiazol-2-yl)((4S,7S)-4-(isoquinolin-3-yl)-7-methyl-6,7-dihydro-1H-imidazo[4,5-c]pyridin-5(4H)-yl)methanone]",1000 to 5000 nM
18,"C[C@H]1CN(C(=O)c2nnc(C(C)(C)C)o2)[C@H](c2cc3ccccc3cn2)c2nc[nH]c21 [Example 428, (5-(tert-butyl)-1,3,4-oxadiazol-2-yl)((4R,7S)-4-(isoquinolin-3-yl)-7-methyl-6,7-dihydro-1H-imidazo[4,5-c]pyridin-5(4H)-yl)methanone]",500 to 1000 nM
19,"C[C@@H]1CN(C(=O)c2nnc(C(C)(C)C)o2)[C@@H](c2cc3ccccc3cn2)c2nc[nH]c21 [Example 429, (5-(tert-butyl)-1,3,4-oxadiazol-2-yl)((4S,7R)-4-(isoquinolin-3-yl)-7-methyl-6,7-dihydro-1H-imidazo[4,5-c]pyridin-5(4H)-yl)methanone]",1000 to 5000 nM
20,"C[C@@H]1CN(C(=O)c2nnc(C(C)(C)C)o2)[C@H](c2cc3ccccc3cn2)c2nc[nH]c21 [Example 430, (5-(tert-butyl)-1,3,4-oxadiazol-2-yl)((4R,7R)-4-(isoquinolin-3-yl)-7-methyl-6,7-dihydro-1H-imidazo[4,5-c]pyridin-5(4H)-yl)methanone]",< 500 nM
21,"O=C(c1cnn2ccccc12)N1CCc2[nH]cnc2[C@H]1c1cc2ccccc2cn1 [Example 431, (R)-(4-(isoquinolin-3-yl)-6,7-dihydro-1H-imidazo[4,5-c]pyridin-5(4H)-yl)(pyrazolo[1,5-a]pyridin-3-yl)methanone]",< 500 nM
22,"O=C(c1nnc(N2CCOCC2)o1)N1CCc2[nH]cnc2[C@H]1c1cc2ccccc2cn1 [Example 433, (R)-(4-(isoquinolin-3-yl)-6,7-dihydro-1H-imidazo[4,5-c]pyridin-5(4H)-yl)(5-morpholino-1,3,4-oxadiazol-2-yl)methanone]",500 to 1000 nM
23,"CC(C)(C)c1ncc(C(=O)N2CCc3[nH]cnc3[C@H]2c2cc3ccccc3cn2)o1 [Example 435, (R)-(2-(tert-butyl)oxazol-5-yl)(4-(isoquinolin-3-yl)-6,7-dihydro-1H-imidazo[4,5-c]pyridin-5(4H)-yl)methanone]",< 500 nM
24,"O=C(c1nnc(-c2ncccc2F)o1)N1CCc2[nH]cnc2[C@H]1c1cc2ccccc2cn1 [Example 437, (R)-(5-(3-fluoropyridin-2-yl)-1,3,4-oxadiazol-2-yl)(4-(isoquinolin-3-yl)-6,7-dihydro-1H-imidazo[4,5-c]pyridin-5(4H)-yl)methanone]",< 500 nM
25,"COc1ccc(-c2nnc(C(=O)N3CCc4[nH]cnc4[C@H]3c3cc4ccccc4cn3)o2)nc1 [Example 438, (R)-(4-(isoquinolin-3-yl)-6,7-dihydro-1H-imidazo[4,5-c]pyridin-5(4H)-yl)(5-(5-methoxypyridin-2-yl)-1,3,4-oxadiazol-2-yl)methanone]",< 500 nM
26,"Cc1ccc(-c2nnc(C(=O)N3CCc4[nH]cnc4[C@H]3c3cc4ccccc4cn3)o2)nc1 [Example 439, (R)-(4-(isoquinolin-3-yl)-6,7-dihydro-1H-imidazo[4,5-c]pyridin-5(4H)-yl)(5-(5-methylpyridin-2-yl)-1,3,4-oxadiazol-2-yl)methanone]",< 500 nM
27,"O=C(c1nnc(-c2cnn(C(F)F)c2)o1)N1CCc2[nH]cnc2[C@H]1c1cc2ccccc2cn1 [Example 440, (R)-(5-(1-(difluoromethyl)-1H-pyrazol-4-yl)-1,3,4-oxadiazol-2-yl)(4-(isoquinolin-3-yl)-6,7-dihydro-1H-imidazo[4,5-c]pyridin-5(4H)-yl)methanone]",< 500 nM
28,"Cn1ccc(-c2nnc(C(=O)N3CCc4[nH]cnc4[C@H]3c3cc4ccccc4cn3)o2)n1 [Example 441, (R)-(4-(isoquinolin-3-yl)-6,7-dihydro-1H-imidazo[4,5-c]pyridin-5(4H)-yl)(5-(1-methyl-1H-pyrazol-3-yl)-1,3,4-oxadiazol-2-yl)methanone]",< 500 nM
